Key:
[1] = biological target: PI3-kinase p110-delta/p85-alpha (Homo sapiens, UniProt O00329); assay: Inhibition of human recombinant full length N-terminal GST-tagged PI3K p110delta/p85alpha coexpressed in baculovirus infected Sf9 insect cells using diC8PIP2 as substrate incubated for 15 mins followed by substrate addition measured after 2 hr by ADP-Glo luminescence assay
[2] = biological target: Phosphatidylinositol 4,5-bisphosphate 3-kinase catalytic subunit gamma isoform (Homo sapiens, UniProt P48736); assay: biochemical
Chain of Phosphatidylinositol 4,5-bisphosphate 3-kinase catalytic subunit gamma isoform (P48736 whole entry, canonical isoform): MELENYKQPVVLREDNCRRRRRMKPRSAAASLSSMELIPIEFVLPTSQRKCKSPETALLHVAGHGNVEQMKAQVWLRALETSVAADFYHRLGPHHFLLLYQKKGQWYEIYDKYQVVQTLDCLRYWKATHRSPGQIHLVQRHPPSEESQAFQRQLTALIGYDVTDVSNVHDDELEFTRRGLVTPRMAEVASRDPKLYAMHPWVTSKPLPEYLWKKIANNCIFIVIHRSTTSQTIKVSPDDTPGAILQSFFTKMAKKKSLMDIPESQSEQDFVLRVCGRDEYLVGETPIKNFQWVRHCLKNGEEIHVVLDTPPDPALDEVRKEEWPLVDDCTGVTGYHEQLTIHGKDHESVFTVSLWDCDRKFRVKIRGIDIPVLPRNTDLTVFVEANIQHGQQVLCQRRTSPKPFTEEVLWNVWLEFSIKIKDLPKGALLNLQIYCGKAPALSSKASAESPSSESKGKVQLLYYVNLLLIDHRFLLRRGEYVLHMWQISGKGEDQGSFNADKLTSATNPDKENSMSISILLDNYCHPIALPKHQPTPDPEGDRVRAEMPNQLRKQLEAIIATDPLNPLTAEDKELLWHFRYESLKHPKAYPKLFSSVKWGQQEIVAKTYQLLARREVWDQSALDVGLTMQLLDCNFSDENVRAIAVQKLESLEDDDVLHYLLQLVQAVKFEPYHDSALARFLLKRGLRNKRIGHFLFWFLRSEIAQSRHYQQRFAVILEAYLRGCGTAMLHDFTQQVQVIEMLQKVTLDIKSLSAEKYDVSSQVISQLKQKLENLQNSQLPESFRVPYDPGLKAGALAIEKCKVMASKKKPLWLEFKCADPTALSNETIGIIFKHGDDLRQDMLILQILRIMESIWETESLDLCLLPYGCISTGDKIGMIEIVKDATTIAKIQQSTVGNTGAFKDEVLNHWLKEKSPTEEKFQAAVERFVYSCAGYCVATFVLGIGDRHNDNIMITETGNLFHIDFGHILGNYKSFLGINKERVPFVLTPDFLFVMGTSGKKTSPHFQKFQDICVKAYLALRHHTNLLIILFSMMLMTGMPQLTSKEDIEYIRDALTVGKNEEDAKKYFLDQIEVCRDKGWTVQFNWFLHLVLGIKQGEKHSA
Description: Inhibition of human recombinant full length N-terminal His-tagged PI3Kgamma expressed in Sf9 insect cells using diC8PIP2 as substrate incubated for 15 mins followed by substrate addition measured after 2 hr by ADP-Glo luminescence assay

[3] = Half life in mouse hepatocytes at 1 uM by LC/MS analysis; type: ADME, cell-based, Hepatocyte

Chain of PI3-kinase p110-delta/p85-alpha (P27986 whole entry, canonical isoform): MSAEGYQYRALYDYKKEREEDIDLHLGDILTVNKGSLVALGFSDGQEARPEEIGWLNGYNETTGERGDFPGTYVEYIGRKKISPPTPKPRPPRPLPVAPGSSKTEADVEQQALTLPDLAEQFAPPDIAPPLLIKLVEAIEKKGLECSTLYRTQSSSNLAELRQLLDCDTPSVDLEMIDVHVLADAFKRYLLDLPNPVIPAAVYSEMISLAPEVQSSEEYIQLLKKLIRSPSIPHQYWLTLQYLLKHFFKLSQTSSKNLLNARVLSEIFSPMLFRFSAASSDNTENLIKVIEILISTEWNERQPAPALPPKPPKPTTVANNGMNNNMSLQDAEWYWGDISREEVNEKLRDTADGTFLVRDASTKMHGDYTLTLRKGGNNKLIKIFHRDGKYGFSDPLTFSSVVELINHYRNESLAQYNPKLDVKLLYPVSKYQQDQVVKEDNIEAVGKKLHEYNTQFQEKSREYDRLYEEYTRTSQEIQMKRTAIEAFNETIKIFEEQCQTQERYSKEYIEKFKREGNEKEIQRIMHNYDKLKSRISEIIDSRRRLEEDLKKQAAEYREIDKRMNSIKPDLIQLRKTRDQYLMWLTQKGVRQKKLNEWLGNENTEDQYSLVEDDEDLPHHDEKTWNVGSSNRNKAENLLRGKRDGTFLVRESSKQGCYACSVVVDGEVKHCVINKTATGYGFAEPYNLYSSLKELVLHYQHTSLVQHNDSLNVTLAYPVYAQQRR
Chain of PI3-kinase p110-delta/p85-alpha (O00329 whole entry, canonical isoform): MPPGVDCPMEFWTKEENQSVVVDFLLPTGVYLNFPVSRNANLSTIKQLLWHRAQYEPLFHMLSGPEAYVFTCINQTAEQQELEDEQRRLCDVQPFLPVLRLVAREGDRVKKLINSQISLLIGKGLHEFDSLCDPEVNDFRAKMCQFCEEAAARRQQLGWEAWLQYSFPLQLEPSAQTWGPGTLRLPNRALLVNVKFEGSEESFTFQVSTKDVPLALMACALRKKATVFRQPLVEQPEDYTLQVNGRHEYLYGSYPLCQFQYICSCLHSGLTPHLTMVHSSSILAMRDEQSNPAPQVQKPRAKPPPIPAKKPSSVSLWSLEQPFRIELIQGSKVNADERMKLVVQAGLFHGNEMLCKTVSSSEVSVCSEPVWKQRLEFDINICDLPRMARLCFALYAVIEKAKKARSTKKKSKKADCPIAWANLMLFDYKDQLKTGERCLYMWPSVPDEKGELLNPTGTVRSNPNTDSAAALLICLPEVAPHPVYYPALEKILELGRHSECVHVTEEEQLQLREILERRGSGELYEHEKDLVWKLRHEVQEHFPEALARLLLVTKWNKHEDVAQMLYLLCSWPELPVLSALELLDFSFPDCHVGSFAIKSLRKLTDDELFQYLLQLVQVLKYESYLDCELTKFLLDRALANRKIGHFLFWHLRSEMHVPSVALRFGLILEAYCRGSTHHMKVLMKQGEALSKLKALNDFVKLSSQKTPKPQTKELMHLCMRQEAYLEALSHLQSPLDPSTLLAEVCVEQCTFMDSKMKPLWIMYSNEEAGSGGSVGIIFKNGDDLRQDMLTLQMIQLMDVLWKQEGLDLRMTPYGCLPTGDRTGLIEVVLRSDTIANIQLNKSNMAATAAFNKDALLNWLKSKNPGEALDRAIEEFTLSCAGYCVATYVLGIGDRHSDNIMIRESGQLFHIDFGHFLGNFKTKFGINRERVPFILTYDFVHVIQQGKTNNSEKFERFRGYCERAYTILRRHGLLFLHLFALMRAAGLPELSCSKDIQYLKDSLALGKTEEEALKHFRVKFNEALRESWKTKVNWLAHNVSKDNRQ

SMILES | IC50 [1] | IC50 [2] | half-life at 1 µM [3]
Nc1nn2cccnc2c1C(=O)NCc1cc2cccc(Cl)c2c(=O)n1-c1ccccc1 | > 10000 nM | > 7000 nM | –
C[C@H](NC(=O)c1c(N)nn2cccnc12)c1cc2cccc(C#Cc3ccccn3)c2c(=O)n1-c1ccccc1 | > 9600 nM | 170 nM | 1.2 h
C[C@H](NC(=O)c1c(N)nn2cccnc12)c1cc2cccc(C#Cc3nccs3)c2c(=O)n1-c1ccccc1 | > 10000 nM | 360 nM | 0.45 h
C[C@H](NC(=O)c1c(N)nn2cccnc12)c1cc2cccc(C#Cc3ccn(C)n3)c2c(=O)n1-c1ccccc1 | > 9000 nM | 100 nM | 4.18 h
COc1cccc2cc([C@H](C)NC(=O)c3c(N)nn4cccnc34)n(-c3ccccc3)c(=O)c12 | > 9000 nM | 1000 nM | –
C[C@H](NC(=O)c1c(N)nn2cccnc12)c1cc2cccc(C#Cc3cncs3)c2c(=O)n1-c1ccccc1 | > 8000 nM | 110 nM | 0.717 h
C[C@H](NC(=O)c1c(N)nn2cccnc12)c1cc2cccc(C#Cc3cscn3)c2c(=O)n1-c1ccccc1 | 4800 nM | 75 nM | 4.5 h
C[C@H](NC(=O)c1c(N)nn2cccnc12)c1cc2cccc(C#Cc3cccnc3)c2c(=O)n1-c1ccccc1 | > 6000 nM | 110 nM | 1.7 h
CC#Cc1cccc2cc([C@H](C)NC(=O)c3c(N)nn4cccnc34)n(-c3ccccc3)c(=O)c12 | > 1000 nM | 25 nM | –
C[C@H](NC(=O)c1c(N)nn2cccnc12)c1cc2cccc(C#N)c2c(=O)n1-c1ccccc1 | 3100 nM | 240 nM | –
C/C=C/c1cccc2cc([C@H](C)NC(=O)c3c(N)nn4cccnc34)n(-c3ccccc3)c(=O)c12 | > 10000 nM | 330 nM | –
Cc1cccc2cc([C@H](C)NC(=O)c3c(N)nn4cccnc34)n(-c3ccccc3)c(=O)c12 | 2600 nM | 110 nM | –
CNc1cccc2cc([C@H](C)NC(=O)c3c(N)nn4cccnc34)n(-c3ccccc3)c(=O)c12 | > 10000 nM | 1100 nM | –
C[C@H](NC(=O)c1c(N)nn2cccnc12)c1cc2cccc(C#Cc3ccncc3)c2c(=O)n1-c1ccccc1 | > 9000 nM | 350 nM | 0.85 h
C[C@H](NC(=O)c1c(N)nn2cccnc12)c1cc2cccc(N(C)C)c2c(=O)n1-c1ccccc1 | > 10000 nM | 1100 nM | –
C[C@H](NC(=O)c1c(N)ncc2ccccc12)c1cc2cccc(Cl)c2c(=O)n1-c1ccccc1 | > 10000 nM | > 10000 nM | –

The remaining lines, values ahead:

IC50 [1] | IC50 [2] | half-life at 1 µM [3] | SMILES
800 nM | 400 nM | – | C[C@H](NC(=O)c1cnn2cccnc12)c1cc2cccc(Cl)c2c(=O)n1-c1ccccc1
320 nM | 60 nM | – | C[C@H](NC(=O)c1c(N)ncc2cccnc12)c1cc2cccc(Cl)c2c(=O)n1-c1ccccc1
2600 nM | – | – | C[C@H](NC(=O)c1c(N)nn2ccccc12)c1cc2cccc(Cl)c2c(=O)n1-c1ccccc1
600 nM | 150 nM | – | CC[C@H](NC(=O)c1c(N)nn2cccnc12)c1cc2cccc(Cl)c2c(=O)n1-c1ccccc1
400 nM | – | – | C[C@H](NC(=O)c1c(N)nn2cccnc12)c1cc2cccc(Cl)c2c(=O)n1-c1ccccc1
140 nM | 280 nM | – | C[C@H](NC(=O)c1c(N)nn2cccnc12)c1cc2cccc(C#Cc3ccccc3)c2c(=O)n1-c1ccccc1
700 nM | 14 nM | – | C#Cc1cccc2cc([C@H](C)NC(=O)c3c(N)nn4cccnc34)n(-c3ccccc3)c(=O)c12
530 nM | 50 nM | – | C[C@H](NC(=O)c1c(N)nn2cccnc12)c1cc2cccc(F)c2c(=O)n1-c1ccccc1
900 nM | 1000 nM | – | C[C@H](NC(=O)c1cncc2cccnc12)c1cc2cccc(Cl)c2c(=O)n1-c1ccccc1

— ChEMBL document CHEMBL3853350 (ACS Med Chem Lett, 2016)
